In this assay the target is Prostaglandin E2 receptor EP2 subtype (Homo sapiens) (UniProt P43116). Briefly: EP2 receptor modulators, dose response, cell-based, human EP2, PGE2 EC50 shift (AID 1421). As to conditions: EP2-expressing cells, PGE2 EC50 shift by compound; for PGE2 EC50 with compound: measured here: PGE2 EC50 at 6.7 uM compound.

Calls of active or inactive are those of the source. The rule behind the calls is not given here.

Sequence of Prostaglandin E2 receptor EP2 subtype (Homo sapiens) (P43116 whole entry, looked up): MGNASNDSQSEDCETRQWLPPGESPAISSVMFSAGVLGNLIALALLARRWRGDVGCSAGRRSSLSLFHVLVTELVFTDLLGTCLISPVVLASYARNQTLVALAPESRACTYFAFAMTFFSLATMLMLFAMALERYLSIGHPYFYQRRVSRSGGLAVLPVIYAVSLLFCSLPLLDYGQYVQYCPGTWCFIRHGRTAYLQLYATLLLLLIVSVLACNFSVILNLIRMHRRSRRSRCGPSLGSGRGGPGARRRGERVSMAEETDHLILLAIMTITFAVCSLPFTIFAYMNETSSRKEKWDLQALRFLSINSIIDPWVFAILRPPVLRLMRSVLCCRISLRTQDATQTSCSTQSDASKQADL

For `O=C(Nc1cccc(Cl)c1N1CCCCC1)c1ccc2c(c1)OCCO2`, the PGE2 EC50 with compound was 0.64 nM. On the same count and under the same terms, the value for `Cn1c(=O)c2c(SC3CCCC3)nc(C3CC3)nc2n(C)c1=O` was 0.61 nM.

On to `COc1ccc(C2=NN(C(=O)c3cccs3)C(c3ccccc3O)C2)cc1` (stereo not drawn), for which the PGE2 EC50 with compound is 0.51 nM. Consider `CCOC(=O)C1=C(CC)Nc2ccccc2N=C1NC(=O)c1oc2ccccc2c1C`, for which the PGE2 EC50 with compound stood at 1.19 nM. Still for that read-out and setting: the value for `CN(CC(=O)Nc1ccccc1Oc1ccccc1)Cc1ccccc1F` was 2.47 nM; that for `COC(=O)c1ccc(-c2ccco2)n1Cc1cccc(C)c1` was 2.63 nM; that for `O=C(Nc1ccccc1N1CCOCC1)c1ccc2ccccc2n1` was 0.82 nM. Take `COc1cc2cc(Br)cc(Br)c2nc1C`: the PGE2 EC50 with compound came to 2.62 nM. In the case of `C=CCc1cc(C=O)cc(OC)c1OCc1c(Cl)cccc1Cl`, the PGE2 EC50 with compound was 0.59 nM. Take `COc1ccc(-c2nc3c(c(=O)[nH]c(=O)n3Cc3ccccc3)n2Cc2ccccc2)cc1`: the PGE2 EC50 with compound was 0.55 nM.

On to `CCOc1ccc(Cl)cc1S(=O)(=O)n1cnc2cc(C)c(C)cc21`, for which the PGE2 EC50 with compound is 1.16 nM.

With `O=C(c1cccs1)N1N=C(c2ccccc2)CC1c1ccc(O)cc1` (stereo not drawn), the PGE2 EC50 with compound is 0.83 nM. `CCOC(=O)c1c(C)[nH]c(C=O)c1Cc1cccc(Cl)c1`: the outcome was active and the PGE2 EC50 with compound came to 0.98 nM. Regarding `O=c1[nH]ncc2c3ccccc3n(Cc3cccc(Cl)c3)c12`, the PGE2 EC50 with compound turned out to be 0.98 nM. With `CCOC(=O)c1cc(CC)sc1NC(=O)c1cc(OC)c(OC)c(OC)c1`, the result was active and the PGE2 EC50 with compound is 0.82 nM. Taken in the same sequence, the figures for `CCc1ccccc1NC1c2ccccc2C(=O)N1c1cc(C)ccn1` (stereo not drawn) were “active” and 2.49 nM. As to `Cc1cccc(C(=O)c2cnc3ccccc3c2-c2ccccc2)c1`, the PGE2 EC50 with compound was found to be 0.95 nM. The same measure, in the same setting: the value for `O=C(c1cccs1)c1cn(Cc2ccccc2Cl)c2ccccc12` was 2.63 nM; that for `COc1ccc2cc3c(N)nn(C(=O)C4CCC(C(C)(C)C)CC4)c3nc2c1` (stereo not drawn) was 1.08 nM. For `Cc1cccc(C)c1OCc1nnc(SCC(=O)Nc2nccs2)n1-c1ccccc1`, the PGE2 EC50 with compound stood at 1.01 nM.

Turning to `COc1cc2ccccc2cc1C(=O)NC(=S)Nc1cc(C(=O)O)ccc1C`, the PGE2 EC50 with compound came out at 3.08 nM. Turning to `c1ccc(Cc2nc3ccccc3n2Cc2ccccc2)cc1`, the PGE2 EC50 with compound was 0.81 nM. With `CCCSc1ncnc2sc(C)c(C)c12`, the outcome was active and the PGE2 EC50 with compound stood at 0.89 nM. On to `CSc1nc(Oc2ccccc2)c2sccc2n1`, for which the PGE2 EC50 with compound is 0.93 nM. Same read-out and setting: the value for `CCOC(=O)c1ccccc1NC(=O)C1COc2ccccc2O1` (stereo not drawn) was 0.66 nM. Still for that read-out and setting: the value for `CC1(C)CC2CC(C)(CN2c2ncnc3ccc(Br)cc23)C1` (stereo not drawn) was 1.52 nM.

As for `Cc1ccc(C(=O)Nc2ccccc2N2CCCCC2)cc1[N+](=O)[O-]`, the result was active and the PGE2 EC50 with compound was determined as 0.66 nM. Regarding `CCC1(C)Cc2ccccc2-c2nc3n(c(=O)c21)CCS3` (stereo not drawn), the PGE2 EC50 with compound was determined as 1.37 nM. Same read-out and setting: the value for `Cc1cc2c3c(c1)C1(SCC(=O)N1c1ccc(F)cc1)C(=O)N3C(C)(C)CC2C` (stereo not drawn) was 2.59 nM. `COc1ccc(/C=C(\C#N)C(N)=O)cc1OC`: the PGE2 EC50 with compound turned out to be 1.31 nM.

On to `COc1ccc(Cl)cc1-n1c(C)ccc1C`, for which the PGE2 EC50 with compound came out at 1.06 nM.

Turning to `Cn1c(=O)c2c(ncn2CCSS(=O)(=O)O)n(C)c1=O`, the PGE2 EC50 with compound was found to be 0.97 nM. On the same count and under the same terms, the value for `COc1cccc(OCC(=O)Nc2ccccc2-c2ccccc2)c1` was 1.17 nM; that for `O=S(=O)(c1ccccc1)N(Cc1nc(-c2ccccc2)no1)C1CCCCC1` was 1.26 nM. As to `COc1ccccc1/C=C(/C(=O)OCC(=O)Nc1ccccc1C(C)C)c1ccccc1`, the PGE2 EC50 with compound was 1.1 nM. Turning to `Cc1ccc(C(C)C)c(OCCn2c(=O)oc3ccccc32)c1`, the PGE2 EC50 with compound is 2.6 nM. As to `C/C=C(\C)c1nnc(NC(=O)OCC)s1`, the PGE2 EC50 with compound came to 2.65 nM. `CCOP(=S)(OCC)Oc1nc(Cl)c(Cl)cc1Cl`: the result was active and the PGE2 EC50 with compound amounted to 0.91 nM.

With `O=C(Nc1ccccc1N1CCCCC1)c1cnccn1`, the outcome was active and the PGE2 EC50 with compound stood at 0.93 nM. Turning to `Cc1ccc(C)n1-n1cnc2scc(-c3cccs3)c2c1=O`, the PGE2 EC50 with compound came to 0.97 nM.

Take `CC(C)(C)C1CCC(=NNc2ccc(S(N)(=O)=O)cc2[N+](=O)[O-])CC1` (stereo not drawn): the outcome was active and the PGE2 EC50 with compound came to 1.01 nM. As for `CCCCn1c(=O)c(C(=O)NCc2ccco2)c(O)c2ccccc21`, the PGE2 EC50 with compound stood at 2.62 nM. Same read-out and setting: the value for `CN(C)Cc1ccc(F)cc1Sc1cc(Cl)ccc1Cl` was 0.77 nM; that for `CCOc1nc(C)cc(C)c1S(=O)(=O)c1ccc(Cl)cc1` was 1.56 nM; that for `Cc1ccccc1Cn1c2ccccc2c2cn[nH]c(=O)c21` was 1.15 nM. Turning to `CC(OC(=O)c1oc2ccccc2c1COc1ccccc1)C(=O)NC(N)=O` (stereo not drawn), the PGE2 EC50 with compound is 2.83 nM. Consider `CCCC(=O)Nc1ccccc1Sc1ncnc2scc(-c3ccccc3)c12`, for which the PGE2 EC50 with compound was determined as 1.07 nM. `N#Cc1c(NC(=O)CSc2n[nH]c(Cc3ccccc3)n2)oc(-c2ccccc2)c1-c1ccccc1`: the PGE2 EC50 with compound was 1.4 nM. Still for that read-out and setting: the value for `COc1ccc(-n2c(CCc3ccccc3)nnc2SCC(=O)c2ccccc2)cc1` was 1.57 nM. Still for that read-out and setting: the value for `Cc1ccc(C(=O)C2=C(O)C(=O)N(CCCn3ccnc3)C2c2ccc(OC(C)C)cc2)o1` (stereo not drawn) was 1.01 nM. For `Cc1cccc(-n2c(CCn3nc(C)c([N+](=O)[O-])c3C)n[nH]c2=S)c1`, the PGE2 EC50 with compound came to 2.79 nM. With `CCOC(=O)c1c(CC(C)C)csc1N`, the PGE2 EC50 with compound is 1.47 nM. The same measure, in the same setting: the value for `COC(=O)CSc1nc(-c2ccccc2)nc2ccccc12` was 1.02 nM; that for `COC(=O)c1c(NC(=S)NN2CCOCC2)sc2c1CCCC2` was 0.9 nM; that for `Cc1nnc(SCC(=O)N2c3ccccc3C(C)(c3ccccc3)CC2(C)C)s1` (stereo not drawn) was 0.85 nM. In the case of `O=C(O)c1nn(CC(=O)N(C2CCCCC2)C2CCCCC2)c(=O)c2ccccc12`, the PGE2 EC50 with compound is 1.12 nM. In the case of `Cc1ccc(O)c(C2=Nc3ccccc3N=C(c3cccs3)C2)c1`, the outcome was active and the PGE2 EC50 with compound turned out to be 1.17 nM. On to `CCSc1nc2sc3c(c2c(=O)n1CC)CC(C)(C)OC3`, for which the outcome was active and the PGE2 EC50 with compound turned out to be 0.96 nM. Take `O=c1c2ccccc2nc2n1C1(CCCCC1)Cc1ccccc1-2`: the result was active and the PGE2 EC50 with compound amounted to 0.95 nM. With `Cc1nc2c3cc(F)ccc3n(Cc3ccccc3)c2s1`, the PGE2 EC50 with compound was 0.57 nM. The same measure, in the same setting: the value for `COc1cc(S(=O)(=O)N(Cc2cccnc2)Cc2ccco2)ccc1-n1cnnn1` was 1.45 nM; that for `Cc1cc(C)c(S(=O)(=O)N(C2=NCCS2)S(=O)(=O)c2c(C)cc(C)cc2C)c(C)c1` was 0.99 nM; that for `Cc1ccc(CN2C(=O)CN=C(c3ccccc3)c3ccccc32)cc1` was 1.23 nM. Still for that read-out and setting: the value for `COc1cc2nc(N3CCN(C(=O)C4CCCO4)CC3)nc(N)c2cc1OC` (stereo not drawn) was 0.85 nM; that for `C#CCSc1nc(Cc2ccc(Cl)cc2)nc2ccccc12` was 1.22 nM; that for `COc1ccc(-n2c(=S)[nH]c3c(oc4ccccc43)c2=O)cc1` was 2.8 nM. The same measure, in the same setting: the value for `NC(N)=Nc1nc(CSCC/C(N)=N/S(N)(=O)=O)cs1` was 0.78 nM. For `CC(C)CCn1c(O)c(N=NC(=O)c2ccco2)c2ccccc21`, the PGE2 EC50 with compound was 1.03 nM. Same read-out and setting: the value for `COc1ccc(C2=Nn3c(nnc3-c3ccc(OC)cc3)SC2)cc1` was 1.28 nM. As to `CC(=O)N1Cc2ccccc2C(C)CC12CCCCC2` (stereo not drawn), the PGE2 EC50 with compound came to 0.93 nM. In the case of `CCOC(=O)c1c(NC(=O)CSc2ncnc3[nH]ncc23)sc2c1CCC(C)C2` (stereo not drawn), the PGE2 EC50 with compound amounted to 0.67 nM. As for `CCOC(=O)C1=C(CC)OC(N)=C(C#N)C1c1ccsc1` (stereo not drawn), the PGE2 EC50 with compound was 1.33 nM. Consider `COCCCN(C(=O)c1ccco1)c1nc(-c2cc(OC)ccc2OC)cs1`, for which the PGE2 EC50 with compound was found to be 0.9 nM. As for `Cc1noc(C)c1CSc1nc2ccccc2c(=O)n1-c1ccc(Cl)cc1`, the PGE2 EC50 with compound turned out to be 0.83 nM.

For `Cn1cc(C2=C(c3ccc(Cl)cc3Cl)C(=O)NC2=O)c2ccccc21`, the PGE2 EC50 with compound stood at 0.68 nM. Same read-out and setting: the value for `CCN(CCO)c1ncnc2c1sc1nc(C(C)C)c3c(c12)CC(C)(C)OC3` was 0.69 nM; that for `CCCCc1nnc(SCCSc2nnc(CCCC)n2N)n1N` was 1 nM; that for `CC1CC(C)CN(CC(=O)NC(c2ccccc2)c2ccccc2)C1` (stereo not drawn) was 2.64 nM. Consider `CCOC(=O)c1c(N)sc2c1CCC(CC)C2` (stereo not drawn), for which the PGE2 EC50 with compound came out at 1.5 nM. Take `CCOC(=O)c1oc2ccccc2c1NC(=O)c1cccc(OC)c1OC`: the PGE2 EC50 with compound is 0.98 nM.

As for `Cc1c(C(=O)Nc2cccc3cccnc23)oc2ccccc12`, the PGE2 EC50 with compound turned out to be 0.72 nM. For the molecule `Cc1cc(C#N)c(SCC(N)=O)nc1-c1ccc(F)cc1`, the result was active and the PGE2 EC50 with compound was found to be 1.4 nM. Taken in the same sequence, the figures for `CCOC(=O)c1c(NC(=O)c2ccc(-n3cnnn3)cc2)sc2c1CCCC2` were “active” and 0.85 nM. Regarding `COC(=O)c1sc2[nH]c(=S)n(N)c(=O)c2c1C`, the PGE2 EC50 with compound stood at 1.06 nM.

For the molecule `CCOC(=O)CC(=O)CSc1ncnc2c1oc1ccccc12`, the PGE2 EC50 with compound was 2.64 nM. The same measure, in the same setting: the value for `COc1ccc(C2=NN(C(=O)c3cccs3)C(O)(C(F)(F)F)C2)cc1` (stereo not drawn) was 3 nM; that for `N#Cc1c(-c2cccs2)nc(SCc2ccc(Cl)cc2)[nH]c1=O` was 2.85 nM; that for `CCOC(=O)c1sc(NC(=O)C(CC)OC(=O)C(CC(C)C)NC(=O)c2ccccc2)nc1C` (stereo not drawn) was 1.22 nM. The same measure, in the same setting: the value for `CC(Sc1nc2ccccc2n1C)C(=O)NC(c1ccccc1)c1ccccc1` (stereo not drawn) was 1.24 nM; that for `C=CCn1c(CNC(=O)c2cccs2)nnc1SCC(=O)c1ccc(Br)cc1` was 1.83 nM.

For the origin of these results see PubChem BioAssay AID1421 (Emory University Molecular Libraries Screening Center, 2008).
